Data published in US4472435A, “Benzophenone derivatives useful in treating heart failure” (Hoffman-La Roche Inc., priority 1980, dated 1984).

How the values were obtained:
[1] = Acute toxicity, single oral administration; conditions: mouse, in vivo, mice
Excerpt: (§1) The following Table contains results obtained in the previously described experiment with representative compounds of general formula I. In this Table there are given for each of the compounds figuring therein the dosage administered (in mg/kg p.o.) as well as the percentage variation in the urine volume, the sodium excretion and the potassium excretion in comparison with the control animals (i.e. in comparison with the animals treated only with aldosterone). Moreover, the Table contains data concerning the acute toxicity of the compounds investigated (LD 50 in mg/kg in the case of single oral administration to mice).

aldosterone = assay: Aldosterone antagonism in adrenalectomised rats (urine volume, sodium and potassium excretion); type: in vivo, Female Holtzmann rats; conditions: for Volume (urine volume), in %, based on control animals / [K+] (potassium excretion), in %, based on control animals / [Na+] (sodium excretion), in %, based on control animals: 30 min before aldosterone s.c., adrenalectomised rats, 3 h urine, control = aldosterone only
Procedure: These aldosterone-antagonistic properties can be dmonstrated in adrenalectomized rats as illustrated hereinafter.
If compounds of formula I are administered to the animals before the treatment with aldosterone, then there is observed, in comparison with the animals which are treated only with aldosterone (control animals), a pronounced increase of the sodium excretion (i.e. the sodium retention caused by aldosterone is antagonised), whereas the potassium excretion and the urine volume are influenced to a lesser extent.
The standard experiment is carried out as follows:
Female Holtzmann rats (150-180 g) are bilaterally adrenalectomised 70 to 74 hours before the beginning of the experiment. After the operation, the animals receive a customary rat dry feed and 0.9% sodium chloride solution for drinking. 16-17 hours before the beginning of the experiment the feed is removed from the animals, but they can subsequently drink, as before, 0.9% sodium chloride solution ad libitum. At the beginning of the experiment the substance to be tested as an aldosterone-antagonist is administered to the animals by means of a stomach probe. 30 minutes later the animals receive a subcutaneous injection of […] of aldosterone. After a further 90 minutes, the urinary bladders of the animals are emptied by careful suprapubic pressure, whereupon the animals are placed individually in metabolic cages without food and without drink. The urine of the animals is then collected for 3 hours, whereupon their urinary bladders are once more emptied. The spontaneously excreted urine and the remaining urine obtained at the conclusion of the experiment by pressing-out the urinary bladders are collected in graduated centrifuge glasses. Sodium and potassium concentrations in the urine are determined with a flame photometer.
as §1

[2] = aldosterone in adrenalectomised rats, compared to untreated animals

CN(C(=O)CN)c1ccc(N)cc1C(=NO)c1ccccc1Cl [CH3, COCH2 NH2, OH, Cl, NH2, 2,4'-diamino-2'-[o-chloro-α-(hydroxyimino)benzyl]-N-methylacetanilide]
LD50 [1]: > 5000 mg/kg
Volume (urine volume), in %, based on control animals (aldosterone; 1 mg/kg p.o.): 155%
[K+] (potassium excretion), in %, based on control animals (aldosterone; 1 mg/kg p.o.): 94%
[Na+] (sodium excretion), in %, based on control animals (aldosterone; 1 mg/kg p.o.): 254%

CC(=NO)c1ccc(NC(=O)CN)c(C(=NO)c2ccccc2F)c1 [H, COCH2 NH2, OH, F, drawing 7, 2-amino-2'-[o-fluoro-α-(hydroxyimino)benzyl]-4'-[1-(hydroxyimino)ethyl]acetanilide]
LD50 [1]: > 5000 mg/kg
Volume (urine volume), in %, based on control animals (aldosterone; 0.01 mg/kg p.o.): 161%
[K+] (potassium excretion), in %, based on control animals (aldosterone; 0.01 mg/kg p.o.): 86%
[Na+] (sodium excretion), in %, based on control animals (aldosterone; 0.01 mg/kg p.o.): 215%
Volume (urine volume), in %, based on control animals (aldosterone; 1 mg/kg p.o.): 156%
[K+] (potassium excretion), in %, based on control animals (aldosterone; 1 mg/kg p.o.): 102%
[Na+] (sodium excretion), in %, based on control animals (aldosterone; 1 mg/kg p.o.): 327%

C[C@]12CCC(=O)C=C1CC[C@@H]1[C@@H]2[C@@H](O)C[C@]2(C=O)[C@@H](C(=O)CO)CC[C@@H]12 [aldosterone, reference compound]
potassium excretion after aldosterone (in words) (aldosterone; [2]): increased potassium excretion
sodium excretion after aldosterone (in words) (aldosterone; [2]): pronounced reduction of the sodium excretion
urine volume after aldosterone (in words) (aldosterone; [2]): reduction of the excreted urine volume

NCC(=O)Nc1ccc([N+](=O)[O-])cc1C(=NO)c1ccccc1 [H, COCH2 NH2, OH, H, NO2, 2-amino-2'-[α-(hydroxyimino)-benzyl]-4'-nitro-acetanilide]
LD50 [1]: > 5000 mg/kg
Volume (urine volume), in %, based on control animals (aldosterone; 0.1 mg/kg p.o.): 152%
[K+] (potassium excretion), in %, based on control animals (aldosterone; 0.1 mg/kg p.o.): 97%
[Na+] (sodium excretion), in %, based on control animals (aldosterone; 0.1 mg/kg p.o.): 230%

NCC(=O)Nc1ccc([N+](=O)[O-])cc1C(=NO)c1ccccc1Cl [H, COCH2 NH2, OH, Cl, NO2, 2-amino-2'-[o-chloro-α-(hydroxyimino)-benzyl]-4'-nitro-acetanilide]
LD50 [1]: > 5000 mg/kg
Volume (urine volume), in %, based on control animals (aldosterone; 0.1 mg/kg p.o.): 114%
[K+] (potassium excretion), in %, based on control animals (aldosterone; 0.1 mg/kg p.o.): 99%
[Na+] (sodium excretion), in %, based on control animals (aldosterone; 0.1 mg/kg p.o.): 211%
